37 molecules from US20070010671A1, “Novel quinazoline derivatives and methods of treatment related to the use thereof” (priority 2003, published 2007) can be followed below.

SMILES strings stand for the structures. Counter-ions that a name gives are not always drawn.

For one experiment, the target named is MCH receptor (Homo sapiens, UniProt Q99705). Briefly: High throughput functional screening FLIPR/FDSS6000: inhibition of MCH-evoked intracellular Ca2+ changes. It counts as cell-based. The settings on record: antagonist activity, 50 nM of MCH, FLIPR or FDSS; read-out: IC50. The essentials: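 Antagonism was measured as inhibition of calcium responses to 50 nM MCH, monitored 290 s at ex 488/em 530 nm on FLIPR or FDSS6000. Beforehand, cells bearing a constitutively active MCH receptor received Fluo4-AM (4 μM, 1 h, 37 °C) with probenecid, and test compound for 3 min.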
On to `CN(C)c1nc(N[C@H]2CC[C@@H](NC(=O)COc3ccc(F)c(F)c3)CC2)nc2ccccc12` [Example 909, 2-(3,4-Difluorophenoxy)-N-(cis-4-{[4-(dimethylamino)quinazolin-2-yl]amino}cyclohexyl)-acetamide trifluoroacetate], for which the IC50 came to 0.00097 µM.

Staying with this experiment, now noted: class by percent of control at 10^-7 M or IC50.
With `Cc1noc(C)c1NC(=S)N[C@H]1CC[C@@H](Nc2nc(N(C)C)c3ccccc3n2)CC1` [compound 400], the class is 3 (Class 3: The value of percent of control at 10^−7 M was more than 60% or the value of IC50 was more than 200 nM.).
As to `CN(C)c1nc(N[C@H]2CC[C@@H](CNC(=S)Nc3ccc(SC(F)(F)F)cc3)CC2)nc2ccccc12` [compound 656], the class is on record as 3 (Class 3: The value of percent of control at 10^−7 M was more than 60% or the value of IC50 was more than 200 nM.).
`CC(C)c1ccc(NC(=S)NC[C@H]2CC[C@@H](Nc3nc(N(C)C)c4ccccc4n3)CC2)cc1` [compound 699]: the class is reported as 3 (Class 3: The value of percent of control at 10^−7 M was more than 60% or the value of IC50 was more than 200 nM.).
Consider `CN(C)c1nc(N[C@H]2CC[C@@H](CNC(=S)NC3CCCCCC3)CC2)nc2ccccc12` [compound 748], for which the class is listed as 3 (Class 3: The value of percent of control at 10^−7 M was more than 60% or the value of IC50 was more than 200 nM.).
Still for that read-out and setting: for `CN(C)c1nc(N[C@H]2CC[C@@H](CNC(=S)Nc3cccc(Cl)c3)CC2)nc2ccccc12` [compound 587] the value was 3 (Class 3: The value of percent of control at 10^−7 M was more than 60% or the value of IC50 was more than 200 nM.).
For the molecule `COC(=O)c1sccc1NC(=S)N[C@H]1CC[C@@H](Nc2nc(N(C)C)c3ccccc3n2)CC1` [compound 382], the class was 1 (Class 1: The value of percent of control at 10^−7 M was less than 40% or the value of IC50 was less than 50 nM.).
Still for that read-out and setting: for `COc1ccc(CNC(=S)N[C@H]2CC[C@@H](Nc3nc(N(C)C)c4ccccc4n3)CC2)cc1` [compound 277, N-(cis-4-{[4-(dimethylamino)quinazolin-2-yl]amino}cyclohexyl)-N′-(4-methoxybenzyl)thiourea] the value was 2 (Class 2: The value of percent of control at 10^−7 M was from 40% to 60% or the value of IC50 was from 50 nM to 200 nM.); for `CN(C)c1nc(N[C@H]2CC[C@@H](CNC(=S)Nc3cccc(Cl)c3Cl)CC2)nc2ccccc12` [compound 634], 3 (Class 3: The value of percent of control at 10^−7 M was more than 60% or the value of IC50 was more than 200 nM.).
On to `CN(C)c1nc(N[C@H]2CC[C@@H](NC(=S)Nc3ccc(Cl)c(C(F)(F)F)c3)CC2)nc2ccccc12` [compound 235], for which the class is listed as 3 (Class 3: The value of percent of control at 10^−7 M was more than 60% or the value of IC50 was more than 200 nM.).
Regarding `CN(C)c1nc(N[C@H]2CC[C@@H](CNC(=S)Nc3ccc(Cl)c(C(F)(F)F)c3)CC2)nc2ccccc12` [compound 659], the class is reported as 3 (Class 3: The value of percent of control at 10^−7 M was more than 60% or the value of IC50 was more than 200 nM.).
The same measure, in the same setting: next, `COC(=O)c1ccccc1NC(=O)NC[C@H]1CC[C@@H](Nc2nc(N(C)C)c3ccccc3n2)CC1` [compound 470, methyl 2-[({[(cis-4-{[4-(dimethylamino)quinazoalin-2-yl]amino}cyclohexyl)methyl]amino}carbonyl)amino]benzoate]: 3 (Class 3: The value of percent of control at 10^−7 M was more than 60% or the value of IC50 was more than 200 nM.); `CCOC(=O)c1ccccc1NC(=O)NC[C@H]1CC[C@@H](Nc2nc(N(C)C)c3ccccc3n2)CC1` [compound 491]: 3 (Class 3: The value of percent of control at 10^−7 M was more than 60% or the value of IC50 was more than 200 nM.); `CN(C)c1nc(N[C@H]2CC[C@@H](CNC(=S)Nc3ccc(Oc4ccc([N+](=O)[O-])cc4)cc3)CC2)nc2ccccc12` [compound 740]: 3 (Class 3: The value of percent of control at 10^−7 M was more than 60% or the value of IC50 was more than 200 nM.).
`CN(C)c1nc(N[C@H]2CC[C@@H](NC(=S)Nc3ccc(S(N)(=O)=O)cc3)CC2)nc2ccccc12` [compound 319]: the class is listed as 3 (Class 3: The value of percent of control at 10^−7 M was more than 60% or the value of IC50 was more than 200 nM.).
Same read-out and setting: for `CN(C)c1nc(N[C@H]2CC[C@@H](CNC(=S)NCCc3ccccc3)CC2)nc2ccccc12` [compound 627] the value was 3 (Class 3: The value of percent of control at 10^−7 M was more than 60% or the value of IC50 was more than 200 nM.).
Same read-out and setting: next, `CN(C)c1nc(N[C@H]2CC[C@@H](CNC(=O)Nc3ccc(F)c(C(F)(F)F)c3)CC2)nc2ccccc12` [compound 552]: 3 (Class 3: The value of percent of control at 10^−7 M was more than 60% or the value of IC50 was more than 200 nM.); `COc1cc(NC(=S)NC[C@H]2CC[C@@H](Nc3nc(N(C)C)c4ccccc4n3)CC2)c(OC)cc1Cl` [compound 794]: 3 (Class 3: The value of percent of control at 10^−7 M was more than 60% or the value of IC50 was more than 200 nM.).
In the case of `CN(C)c1nc(N[C@H]2CC[C@@H](CNC(=O)NC3c4ccccc4-c4ccccc43)CC2)nc2ccccc12` [compound 570], the class was 3 (Class 3: The value of percent of control at 10^−7 M was more than 60% or the value of IC50 was more than 200 nM.).

Staying with this experiment, now noted: class by percent of control at 10^-7 M or by IC50; read-out: class.
`CN(C)c1nc(N[C@H]2CC[C@@H](NC(=S)NC34CC5CC(CC(C5)C3)C4)CC2)nc2ccccc12` (relative stereo) [compound 200]: the IC50 is over 0.2 µM.
`COc1ccc(NC(=S)N[C@H]2CC[C@@H](Nc3nc(N(C)C)c4ccccc4n3)CC2)cc1` [compound 183, N-(cis-4-{[4-(dimethylamino)quinazolin-2-yl]amino}cyclohexyl)-N′-(4-methoxyphenyl)thiourea]: the IC50 fell in the range of 0.05 to 0.2 µM.
Consider `CN(C)c1nc(N[C@H]2CC[C@@H](NC(=O)Nc3cc(Cl)c(Cl)cc3Cl)CC2)nc2ccccc12` [compound 74], for which the IC50 was over 0.2 µM.
For `CN(C)c1nc(N[C@H]2CC[C@@H](NC(=S)Nc3cccc(C(F)(F)F)c3)CC2)nc2ccccc12` [compound 194], the IC50 is over 0.2 µM.
`CN(C)c1nc(N[C@H]2CC[C@@H](NC(=O)NCc3cccc(F)c3)CC2)nc2ccccc12` [compound 134, N-(cis-4-{[4-(dimethylamino)quinazolin-2-yl]amino}cyclohexyl)-N′-(3-fluorobenzyl)urea]: the IC50 was in the range of 0.05 to 0.2 µM.
As for `CN(C)c1nc(N[C@H]2CC[C@@H](NC(=O)Nc3cc([N+](=O)[O-])ccc3F)CC2)nc2ccccc12` [compound 99], the IC50 was over 0.2 µM.
Consider `CC(NC(=O)N[C@H]1CC[C@@H](Nc2nc(N(C)C)c3ccccc3n2)CC1)c1ccc(Br)cc1` (relative stereo) [compound 151], for which the IC50 is under 0.05 µM.
Same read-out and setting: for `CN(C)c1nc(N[C@H]2CC[C@@H](NC(=O)NC(=O)c3ccccc3)CC2)nc2ccccc12` [compound 7] the value was over 0.2 µM.
In the case of `Cc1cccc(CNC(=O)N[C@H]2CC[C@@H](Nc3nc(N(C)C)c4ccccc4n3)CC2)c1` [compound 49], the IC50 was over 0.2 µM.

Still in this experiment, the particulars now being: class by percent of control at 10^−7 M or by IC50; read-out: class.
Regarding `CN(C)c1nc(N[C@H]2CC[C@@H](NC(=O)Nc3cccc(Cl)c3Cl)CC2)nc2ccccc12` [Example 1013, N-(2,3-dichlorophenyl)-N′-(cis-4-{[4-(dimethylamino)quinazolin-2-yl]amino}cyclohexyl)urea], the IC50 is over 0.2 µM.
Take `COc1ccc(NC(=O)NC[C@H]2CC[C@@H](Nc3nc(N(C)C)c4ccccc4n3)CC2)c(OC)c1` [Example 1019, N-(2,4-dimethoxyphenyl)-N′-[(cis-4-{[4-(dimethylamino)quinazolin-2-yl]amino}cyclohexyl)methyl]urea]: the IC50 lay in the range of 0.05 to 0.2 µM.
With `CN(C)c1nc(N[C@H]2CC[C@@H](C(=O)NCc3cccc(C(F)(F)F)c3F)CC2)nc2ccccc12` [Example 1177, cis-4-{[4-(dimethylamino)quinazolin-2-yl]amino}-N-[2-fluoro-3-(trifluoromethyl)benzyl]cyclohexanecarboxamide], the IC50 was under 0.05 µM.
With `COc1ccc(OCC(=O)N[C@H]2CC[C@@H](Nc3nc(N(C)C)c4ccccc4n3)CC2)cc1` [Example 1080, N-(cis-4-{[4-(dimethylamino)quinazolin-2-yl]amino}cyclohexyl)-2-(4-methoxyphenoxy)acetamide], the IC50 is under 0.05 µM.
Consider `CN(C)c1nc(N[C@H]2CC[C@@H](CNC(=O)Nc3ccc(Cl)cc3)CC2)nc2ccccc12` [Example 1023, N-(4-chlorophenyl)-N′-[(cis-4-{[4-(dimethylamino)quinazolin-2-yl]amino}cyclohexyl)methyl]urea], for which the IC50 lay in the range of 0.05 to 0.2 µM.
On to `COc1ccccc1Oc1ccc(C(=O)N[C@H]2CC[C@@H](Nc3nc(N(C)C)c4ccccc4n3)CC2)cn1` [Example 1054, N-(cis-4-{[4-(dimethylamino)quinazolin-2-yl]amino}cyclohexyl)-6-(2-methoxyphenoxy)nicotinamide], for which the IC50 is under 0.05 µM.
With `CN(C)c1nc(N[C@H]2CC[C@@H](C(=O)NCc3cc(Br)ccc3F)CC2)nc2ccccc12` [Example 1163, cis-N-(5-bromo-2-fluorobenzyl)-4-{[4-(dimethylamino)quinazolin-2-yl]amino}cyclohexanecarboxamide], the IC50 was under 0.05 µM.
On to `COc1cc(OC)cc(Oc2ccc(C(=O)N[C@H]3CC[C@@H](Nc4nc(N(C)C)c5ccccc5n4)CC3)cn2)c1` [Example 1071, 6-(3,5-dimethoxyphenoxy)-N-(cis-4-{[4-(dimethylamino)quinazolin-2-yl]amino}cyclohexyl)nicotinamide], for which the IC50 is 0.05 to 0.2 µM.
Consider `Cc1cccc(NCC(=O)N[C@H]2CC[C@@H](Nc3nc(N(C)C)c4ccccc4n3)CC2)c1` [Example 1086, N-(cis-4-{[4-(dimethylamino)quinazolin-2-yl]amino}cyclohexyl)-N2-(3-methylphenyl)glycinamide], for which the IC50 was under 0.05 µM.
